Measurements taken from patent EP4417602A1, “SUBSTITUTED PYRAZOLE CARBOXAMIDES, SALTS THEREOF AND THEIR USE AS HERBICIDALLY ACTIVE SUBSTANCES” (Bayer AG, priority 2023, dated 2024).

Assays:
[1] = tested on: POAAN; experiment: A. Herbicidal pre-emergence action on harmful plants (Tables A); assay type: in vivo, Poa annua
Summary of the method: (§1)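 Values are visual percent damage relative to untreated controls, scored ca. 3 weeks after the compound was sprayed on the covering soil of sown pots (sandy loam) at rates up to 1280 g/ha, formulated as WP or EC with 0.5% additive.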

[2] = tested on: ALOMY; experiment: B. Herbicidal post-emergence action on harmful plants (Tables B); assay type: in vivo, Alopecurus myosuroides; details: application rate 1280 g/ha; Table B9a
Description: (§2) Seeds of mono- and dicotyledonous weed plants were placed in plastic pots in sandy loam soil (doubly sown with in each case one species of mono- or dicotyledonous weed plants per pot), covered with soil and cultivated in a greenhouse under controlled growth conditions. 2 to 3 weeks after sowing, the test plants were treated at the one-leaf stage. The compounds of the invention, formulated in the form of wettable powders (WP) or as emulsion concentrates (EC), were applied onto the green parts of the plants as aqueous suspension or emulsion with addition of 0.5% additive at a water application rate of 600 liters per hectare (converted). After the test plants had been kept in the greenhouse under optimum growth conditions for about 3 weeks, the activity of the preparations was rated visually in comparison to untreated controls. For example, 100% activity = the plants have died, 0% activity = like control plants. Tables B1 to B12, below, show the effects of selected compounds of the general formula (I) according to table 1 on various harmful plants and an application rate corresponding to 1280 g/ha or below obtained by the experimental procedure mentioned above. Table B1a: post-emergence activity at 1280g/ha against ABUTH in %

[3] = tested on: VERPE; experiment: as above; assay type: in vivo, Veronica persica
Description: as §2

[4] = tested on: ECHCG; experiment: as above; assay type: in vivo, Echinochloa crus-galli; details: application rate 1280 g/ha; Table B2a
Description: as §2

[5] = tested on: DIGSA; experiment: A. Herbicidal pre-emergence action on harmful plants (Tables A); assay type: in vivo, Digitaria sanguinalis
Summary of the method: as §1

[6] = tested on: ABUTH; experiment: B. Herbicidal post-emergence action on harmful plants (Tables B); assay type: in vivo, Abutilon theophrasti; details: application rate 1280 g/ha; Table B1a
Description: as §2

[7] = tested on: ALOMY; experiment: A. Herbicidal pre-emergence action on harmful plants (Tables A); assay type: in vivo, Alopecurus myosuroides
Summary of the method: as §1

[8] = tested on: STEME; experiment: as above; assay type: in vivo, Stellaria media; details: visual grading after ca. 3 weeks vs untreated controls, 100% = plants have died off, 0% = as control plants
Summary of the method: as §1

[9] = tested on: MATIN; experiment: as above; assay type: in vivo, Matricaria inodora; details: visual grading after ca. 3 weeks vs untreated controls, 100% = plants have died off, 0% = as control plants
Summary of the method: as §1

[10] = tested on: SETVI; experiment: as above; assay type: in vivo, Setaria viridis; details: visual grading after ca. 3 weeks vs untreated controls, 100% = plants have died off, 0% = as control plants
Summary of the method: as §1

[11] = tested on: POAAN; experiment: B. Herbicidal post-emergence action on harmful plants (Tables B); assay type: in vivo, Poa annua
Summary of the method: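 Greenhouse weeds grown in sandy loam were sprayed post-emergence at the one-leaf stage, 2-3 weeks after sowing. Compounds were applied as WP or EC in water with 0.5% additive at 600 L/ha, at 1280 g/ha or below. Visual damage was rated after about 3 weeks versus untreated plants (0-100%).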

[12] = tested on: LOLRI; experiment: A. Herbicidal pre-emergence action on harmful plants (Tables A); assay type: in vivo, Lolium rigidum; details: visual grading after ca. 3 weeks vs untreated controls, 100% = plants have died off, 0% = as control plants
Summary of the method: as §1

[13] = tested on: ECHCG; experiment: as above; assay type: in vivo, Echinochloa crus-galli; details: visual grading after ca. 3 weeks vs untreated controls, 100% = plants have died off, 0% = as control plants
Summary of the method: as §1

[14] = tested on: SETVI; experiment: B. Herbicidal post-emergence action on harmful plants (Tables B); assay type: in vivo, Setaria viridis; details: application rate 1280 g/ha; Table B5
Description: as §2

[15] = tested on: STEME; experiment: as above; assay type: in vivo, Stellaria media; details: application rate 1280 g/ha; Table B6
Description: as §2

[16] = tested on: MATIN; experiment: as above; assay type: in vivo, Matricaria inodora; details: application rate 1280 g/ha; Table B4a
Description: as §2

[17] = tested on: DIGSA; experiment: as above; assay type: in vivo, Digitaria sanguinalis; details: application rate 1280 g/ha; Table B12a
Description: as §2

[18] = tested on: AMARE; experiment: A. Herbicidal pre-emergence action on harmful plants (Tables A); assay type: in vivo, Amaranthus retroflexus
Source text: Seeds of mono- and dicotyledonous weed plants were sown in plastic pots (double sowings with one species of mono- and one species of dicotyledonous weed plants per pot), in sandy loam, and covered with soil. The compounds according to the invention, formulated in the form of wettable powders (WP) or as emulsifiable concentrates (EC), were applied to the surface of the covering soil as aqueous suspension or emulsion, with the addition of 0.5% of an additive, at an application rate of 6001 of water per hectare (converted). Following treatment, the pots were placed in a greenhouse and kept under optimum growth conditions for the test plants. The visual grading of the damage to the test plants was carried out after ca. 3 weeks in comparison to untreated controls (herbicidal effect in percent (%): 100% effect = plants have died off, 0% effect = as control plants). Tables A1 to A12, below, show the effects of selected compounds of the general formula (I) according to table 1 on various harmful plants and an application rate corresponding to 1280 g/ha or below obtained by the experimental procedure mentioned above. Table A1: pre-emergence activity at 1280g/ha against ABUTH in %

[19] = application rate 320 g/ha, Table A7b
[20] = application rate 1280 g/ha, visual grading after ca. 3 weeks vs untreated controls, 100% = plants have died off, 0% = as control plants
[21] = application rate 1280 g/ha, Table B11a
[22] = application rate 1280 g/ha, Table A12a
[23] = application rate 1280 g/ha, Table A9a
[24] = application rate 80 g/ha, Table A7c
[25] = application rate 1280 g/ha, Table B7a
[26] = application rate 320 g/ha, Table A12b
[27] = application rate 80 g/ha, Table A12c

## Cn1cc(C(=O)N2CCCC2Cc2cc(F)ccc2F)c(COc2ccccc2)n1 (racemic) [Example I-010]
[1]; [19]
  pre-emergence activity against POAAN: 90%
[1]; [20]
  pre-emergence activity against POAAN: 100%
[2]
  post-emergence activity against ALOMY: 90%
[3]; [21]
  post-emergence activity against VERPE: 90%
[4]
  post-emergence activity against ECHCG: 90%
[5]; [22]
  pre-emergence activity against DIGSA: 90%
[6]
  post-emergence activity against ABUTH: 90%
[7]; [23]
  pre-emergence activity against ALOMY: 100%
[8]; application rate 1280 g/ha
  pre-emergence activity against STEME: 90%

## COCc1nn(C)cc1C(=O)N1CCCC1C(O)c1ccccc1F (single isomer, unassigned) [Example I-054]
[1]; [24]
  pre-emergence activity against POAAN: 90%
[1]; [19]
  pre-emergence activity against POAAN: 90%
[1]; [20]
  pre-emergence activity against POAAN: 100%
[9]; application rate 320 g/ha
  pre-emergence activity against MATIN: 90%
[9]; application rate 1280 g/ha
  pre-emergence activity against MATIN: 90%
[10]; application rate 320 g/ha
  pre-emergence activity against SETVI: 90%
[10]; application rate 1280 g/ha
  pre-emergence activity against SETVI: 90%
[11]; [25]
  post-emergence activity against POAAN: 90%
[12]; application rate 1280 g/ha
  pre-emergence activity against LOLRI: 90%
[13]; application rate 320 g/ha
  pre-emergence activity against ECHCG: 90%
[13]; application rate 1280 g/ha
  pre-emergence activity against ECHCG: 100%
[5]; [26]
  pre-emergence activity against DIGSA: 90%
[5]; [22]
  pre-emergence activity against DIGSA: 100%
[14]
  post-emergence activity against SETVI: 90%
[8]; application rate 320 g/ha
  pre-emergence activity against STEME: 90%
[8]; application rate 1280 g/ha
  pre-emergence activity against STEME: 90%

## COCc1nn(C)cc1C(=O)N1CCCC1Cc1ccccc1C (single isomer, unassigned) [Example I-084]
[1]; [24]
  pre-emergence activity against POAAN: 100%
[1]; [19]
  pre-emergence activity against POAAN: 100%
[1]; [20]
  pre-emergence activity against POAAN: 100%
[9]; application rate 80 g/ha
  pre-emergence activity against MATIN: 90%
[9]; application rate 320 g/ha
  pre-emergence activity against MATIN: 90%
[9]; application rate 1280 g/ha
  pre-emergence activity against MATIN: 90%
[15]
  post-emergence activity against STEME: 90%
[10]; application rate 80 g/ha
  pre-emergence activity against SETVI: 90%
[10]; application rate 320 g/ha
  pre-emergence activity against SETVI: 90%
[10]; application rate 1280 g/ha
  pre-emergence activity against SETVI: 100%
[16]
  post-emergence activity against MATIN: 90%
[11]; application rate 320 g/ha, Table B7b
  post-emergence activity against POAAN: 100%
[11]; [25]
  post-emergence activity against POAAN: 100%
[12]; application rate 320 g/ha
  pre-emergence activity against LOLRI: 90%
[12]; application rate 1280 g/ha
  pre-emergence activity against LOLRI: 100%
[17]
  post-emergence activity against DIGSA: 90%
[13]; application rate 80 g/ha
  pre-emergence activity against ECHCG: 90%
[13]; application rate 320 g/ha
  pre-emergence activity against ECHCG: 90%
[13]; application rate 1280 g/ha
  pre-emergence activity against ECHCG: 90%
[3]; application rate 320 g/ha, Table B11b
  post-emergence activity against VERPE: 90%
[3]; [21]
  post-emergence activity against VERPE: 90%
[4]
  post-emergence activity against ECHCG: 90%
[5]; [27]
  pre-emergence activity against DIGSA: 90%
[5]; [26]
  pre-emergence activity against DIGSA: 90%
[5]; [22]
  pre-emergence activity against DIGSA: 90%
[6]
  post-emergence activity against ABUTH: 90%
[7]; [23]
  pre-emergence activity against ALOMY: 90%
[8]; application rate 320 g/ha
  pre-emergence activity against STEME: 90%
[8]; application rate 1280 g/ha
  pre-emergence activity against STEME: 90%
[18]; application rate 320 g/ha, Table A8b
  pre-emergence activity against AMARE: 90%
[18]; [20]
  pre-emergence activity against AMARE: 90%

## COCc1nn(C)cc1C(=O)N1CCCC1Cc1cccc(F)c1F (single isomer, unassigned) [Example I-088]
[1]; [24]
  pre-emergence activity against POAAN: 90%
[1]; [19]
  pre-emergence activity against POAAN: 100%
[1]; [20]
  pre-emergence activity against POAAN: 100%
[9]; application rate 80 g/ha
  pre-emergence activity against MATIN: 90%
[9]; application rate 320 g/ha
  pre-emergence activity against MATIN: 90%
[9]; application rate 1280 g/ha
  pre-emergence activity against MATIN: 90%
[10]; application rate 80 g/ha
  pre-emergence activity against SETVI: 90%
[10]; application rate 320 g/ha
  pre-emergence activity against SETVI: 100%
[10]; application rate 1280 g/ha
  pre-emergence activity against SETVI: 100%
[16]
  post-emergence activity against MATIN: 90%
[11]; [25]
  post-emergence activity against POAAN: 90%
[12]; application rate 80 g/ha
  pre-emergence activity against LOLRI: 90%
[12]; application rate 320 g/ha
  pre-emergence activity against LOLRI: 100%
[12]; application rate 1280 g/ha
  pre-emergence activity against LOLRI: 100%
[17]
  post-emergence activity against DIGSA: 90%
[13]; application rate 80 g/ha
  pre-emergence activity against ECHCG: 90%
[13]; application rate 320 g/ha
  pre-emergence activity against ECHCG: 90%
[13]; application rate 1280 g/ha
  pre-emergence activity against ECHCG: 100%
[5]; [27]
  pre-emergence activity against DIGSA: 100%
[5]; [26]
  pre-emergence activity against DIGSA: 100%
[5]; [22]
  pre-emergence activity against DIGSA: 100%
[14]
  post-emergence activity against SETVI: 90%
[7]; application rate 320 g/ha, Table A9b
  pre-emergence activity against ALOMY: 90%
[7]; [23]
  pre-emergence activity against ALOMY: 100%
[8]; application rate 80 g/ha
  pre-emergence activity against STEME: 90%
[8]; application rate 320 g/ha
  pre-emergence activity against STEME: 90%
[8]; application rate 1280 g/ha
  pre-emergence activity against STEME: 90%

## COCc1nn(C)cc1C(=O)N1CCCC1C(C)c1ccccc1F (centres unmarked) [Example I-021]
[1]; [19]
  pre-emergence activity against POAAN: 100%
[1]; [20]
  pre-emergence activity against POAAN: 100%
[9]; application rate 1280 g/ha
  pre-emergence activity against MATIN: 90%
[10]; application rate 320 g/ha
  pre-emergence activity against SETVI: 100%
[10]; application rate 1280 g/ha
  pre-emergence activity against SETVI: 100%
[16]
  post-emergence activity against MATIN: 90%
[11]; [25]
  post-emergence activity against POAAN: 90%
[12]; application rate 320 g/ha
  pre-emergence activity against LOLRI: 100%
[12]; application rate 1280 g/ha
  pre-emergence activity against LOLRI: 100%
[13]; application rate 1280 g/ha
  pre-emergence activity against ECHCG: 100%
[4]
  post-emergence activity against ECHCG: 90%
[5]; [26]
  pre-emergence activity against DIGSA: 90%
[5]; [22]
  pre-emergence activity against DIGSA: 100%
[14]
  post-emergence activity against SETVI: 90%
[7]; [23]
  pre-emergence activity against ALOMY: 90%
